# What was measured:
# [1] = system: human epithelial (A-549) cancer cell line; assay: Antiproliferative assay, A-549; assay type: cell-based; details: A549, read-out: Antiproliferative Activity IC50 ± SEM, A-549
# Experimental: (§1) 4.2.1.2. Assay for antiproliferative effect
# (§2) To explore the antiproliferative potential of compounds propidium iodide fluorescence assay was performed using different cell lines such as Panc-1 (pancreas cancer cell line), MCF-7 (breast cancer cell line), HT-29 (colon cancer cell line) and A-549 (epithelial cancer cell line), respectively.
# (§3) To calculate the total nuclear DNA, a fluorescent dye (propidium iodide, PI) is used which can attach to the DNA, thus offering a quick and precise technique. PI cannot pass through the cell membrane and its signal intensity can be considered as directly proportional to quantity of cellular
# (§4) DNA. Cells whose cell membranes are damaged or have changed permeability are counted as dead ones. The assay was performed by seeding the cells of different cell lines at a density of 3000-7500 cells/well (in200μl medium) in culture plates followed by incubation for 24h at 37 °C in humidified 5%CO2/95% air atmospheric conditions. The medium was removed; the compounds were added to the plates at 10 μM concentrations (in 0.1% DMSO) in triplicates, followed by incubation for 48h. DMSO (0.1%) was used as control. After incubation, medium was removed followed by the addition of PI (25 μl, 50μg/mL in water/medium) to each well of the plates. At - 80 °C, the plates were allowed to freeze for 24 h, followed by thawing at 25 °C. A fluorometer (Polar-Star BMG Tech) was used to record the readings at excitation and emission wavelengths of 530 and 620 nm for each well. The percentage cytotoxicity of compounds was calculated using […]
# (§5) Where ATC= Absorbance of treated cells and AC= Absorbance of control. Erlotinib was used as positive control in the assay.
# [2] = system: colon cancer (HT-29) cell line; assay: Antiproliferative assay, HT-29; assay type: cell-based; details: Homo sapiens, read-out: Antiproliferative Activity IC50 ± SEM, HT-29
# Experimental: as §1, §2, §3, §4, §5
# [3] = system: four human cancer cell lines (A-549, MCF-7, Panc-1, HT-29); assay: Antiproliferative assay, average over the four cancer cell lines (GI50); assay type: cell-based; details: average of the four cancer cell lines
# Experimental: See Supplementary Materials.
# as §1
# To explore the antiproliferative potential of compounds propidium iodide fluorescence assay was performed using different cell lines such as Panc-1 (pancreas cancer cell line), MCF-7 (breast […]
# as §3
# DNA. Cells whose cell membranes are damaged or have changed permeability are counted as dead ones. The assay was performed by seeding the cells of different cell lines at a density of 3000- […]
# The medium was removed; the compounds were added to the plates at 10 μM concentrations (in 0.1% DMSO) in triplicates, followed by incubation for 48h. DMSO (0.1%) was used as control. After incubation, medium was removed followed by the addition of PI (25 μl, 50μg/mL in water/medium) to each well of the plates. At - 80 °C, the plates were allowed to freeze for 24 h, followed by thawing at 25 °C. A fluorometer (Polar-Star BMG Tech) was used to record the readings at excitation and emission wavelengths of 530 and 620 nm for each well. The percentage cytotoxicity of compounds was calculated using […]
# Where ATC= Absorbance of treated cells and AC= Absorbance of control. […]
# positive control in the assay.
# caspase-3 = assay: Caspase 3 assay in A-549 cells; assay type: cell-based, human; details: for Caspase-3 Conc: untreated control 66 pg/mL
# Experimental: Caspases play a crucial function in the induction and completion of apoptosis. Caspase-3 is an essential caspase that cleaves different proteins in cells, resulting in apoptosis. […]
# 4.2.5. Caspase-3 activation assay
# Allow all reagents to reach room temperature before use. Gently mix all liquid reagents prior to use. Determine the number of 8-well strips needed for the assay. Insert these in the frame(s) for current use. Add 100 μl of the Standard Diluent Buffer to the zero standard wells. Well(s) reserved for chromogen blank should be left empty. Add 100 μl of standards and controls or diluted samples to the appropriate microtiter wells. The sample dilution chosen should be optimized for each experimental system. Tap gently on side of plate to mix. Cover wells with plate cover and incubate for 2 hours at room temperature. Thoroughly aspirate or decant solution from wells and discard the liquid, Wash wells 4 times. Pipette 100 μl of Caspase-3 (Active) Detection Antibody solution into each well except the chromogen blank(s). Tap gently on the side of the plate to mix. Cover plate with plate cover and incubate for 1 hour at room temperature. Thoroughly aspirate or decant solution from wells and discard the liquid, Wash wells 4 times. Add 100 μl Anti-Rabbit IgG HRP Working Solution to each well except the chromogen blank(s). Prepare the working dilution as described in Preparing IgG HRP. Cover wells with the plate cover and incubate for 30 minutes at room temperature. Thoroughly aspirate or decant solution from wells and discard the liquid. Wash wells 4 times. Add 100 μl of Stabilized Chromoge n to each well. The liquid in the wells will begin to turn blue. Incubate for 30 minutes at room temperature and in the dark. The incubation time for chromogen substrate is often determined by the microtiter plate reader used. Many plate readers have the capacity to record a maximum optical density (O.D.) of 2.0. The O.D. values should be monitored, and the substrate reaction stopped before the O.D. of the positive wells exceeds the limits of the instrument. The O.D. values at 450 nm can only be read after the Stop Solution has been added to each well. If using a reader that records only to 2.0 O.D., stopping the assay after […]
# Add 100 μl of Stop Solution to each well. Tap side of plate gently to mix. The solution in the wells should change from blue to yellow. Read the absorbance of each well at 450 nm having blanked the plate reader against a chromogen blank composed of 100 μl each of Stabilized Chromogen and Stop Solution. Read the plate within 2 hours after adding the Stop Solution. Use a curve fitting software to generate the standard curve. A four-parameter algorithm provides the best standard curve fit. Read the concentrations for unknown samples and controls from the standard curve. Multiply value(s) obtained for sample(s) by the appropriate dilution factor to correct for the dilution in step 3. Samples producing signals greater than that of the highest standard should be diluted in Standard Diluent Buffer and reanalyzed.
SMILES,IC50 [1] [nM],IC50 [2] [nM],GI50 [3] [nM],Caspase-3 Conc (caspase-3) [pg/mL],Caspase-3 Fold Change (caspase-3; vs untreated control)
"O=C(NCC(c1ccccc1)c1c(-c2ccccc2)[nH]c2ccccc12)c1cc2cc(Cl)ccc2[nH]1 (stereo not drawn) [Compound Va, 5-Chloro-N-(2-phenyl-2-(2-phenyl-1H-indol-3-yl)ethyl)-1H-indole-2-carboxamide]",25 ± 2,26 ± 2,26,726 ± 6,
"CO/C=C/c1c(C(=O)NCC(c2ccccc2)c2c(-c3ccccc3)[nH]c3ccccc23)[nH]c2ccc(Cl)cc12 (stereo not drawn) [Compound Vg, (E)-5-Chloro-3-(2-methoxyvinyl)-N-(2-phenyl-2-(2-phenyl-1H-indol-3-yl)ethyl)-1H-indole-2-carboxamide]",30 ± 2,30 ± 2,31,528 ± 5,~8

# Reference: paper PMC10385579, “Design, Synthesis, and Biological Evaluation of Indole-2-carboxamides as Potential Multi-Target Antiproliferative Agents” (Pharmaceuticals, 2023)
